Test results as given in PubChem BioAssay AID1963835 (Molecular Pharmacology Branch, DTP, NCI, 2024).
Several values for one entry are separate records, joined by “and”; a condition that tells them apart may be missing. Equal entries are not always repeated.

Tested on: 699152-130-R-J1-PDC complex spheroid viability
Experiment: Anticancer human tumor 699152-130-R-J1-PDC patient-derived pancreatic carcinoma cell line growth inhibition [POLQ]
Conditions: for viability, T/C: stronger effect = lower value
How it was run: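 Patient-derived tumour cells were co-cultured with HUVEC and mesenchymal stem cells as multicellular spheroids at 37 °C. They were treated with POLQ inhibitors (novobiocin, ART-558, RP6685) alone or combined with other agents. Top concentrations were at or near clinical Cmax (otherwise 10 microM; SN-38 at 1 microM), decreasing in half-log steps.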
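Note: spheroids exposed to agents for 7 days before viability reading.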
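Throughout, for viability, T/C: percent of DMSO vehicle control viability so 100% = vehicle and 0% = no viable signal.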

SMILES: CC(C)n1c(=O)n(C)c2cnc3cc(F)c(-c4ccc(OCCCN5CCCCC5)nc4)cc3c21 + COC1C(OC(N)=O)C(O)C(Oc2ccc3c(O)c(NC(=O)c4ccc(O)c(CC=C(C)C)c4)c(=O)oc3c2C)OC1(C)C
- IC50 (curve of first compound, second compound 0.0316 µM): < 31.6 nM
- IC50 (curve of first compound, second compound 0.1 µM): < 31.6 nM
- IC50 (curve of first compound, second compound 0.316 µM): < 31.6 nM
- IC50 (curve of first compound, second compound 1 µM): < 31.6 nM
- IC50 (curve of first compound, second compound 3.16 µM): < 31.6 nM
- IC50 (curve of first compound, second compound 10 µM): < 31.6 nM
- viability, T/C (second compound 0.0316 µM, first compound 0.0316 µM): 38.8%
- viability, T/C (second compound 0.0316 µM, first compound 0.1 µM): 44.1%
- viability, T/C (second compound 0.0316 µM, first compound 0.316 µM): 39.9%
- viability, T/C (second compound 0.0316 µM, first compound 1 µM): 47.7%
- viability, T/C (second compound 0.0316 µM, first compound 3.16 µM): 46.4%
- viability, T/C (second compound 0.0316 µM, first compound 10 µM): 45.8%
- viability, T/C (second compound 0.1 µM, first compound 0.0316 µM): 34.7%
- viability, T/C (second compound 0.1 µM, first compound 0.1 µM): 40.6%
- viability, T/C (second compound 0.1 µM, first compound 0.316 µM): 41.8%
- viability, T/C (second compound 0.1 µM, first compound 1 µM): 41%
- viability, T/C (second compound 0.1 µM, first compound 3.16 µM): 38.9%
- viability, T/C (second compound 0.1 µM, first compound 10 µM): 39.9%
- viability, T/C (second compound 0.316 µM, first compound 0.0316 µM): 38.9%
- viability, T/C (second compound 0.316 µM, first compound 0.1 µM): 39.2%
- viability, T/C (second compound 0.316 µM, first compound 0.316 µM): 46.5%
- viability, T/C (second compound 0.316 µM, first compound 1 µM): 44.8%
- viability, T/C (second compound 0.316 µM, first compound 3.16 µM): 42%
- viability, T/C (second compound 0.316 µM, first compound 10 µM): 43.5%
- viability, T/C (second compound 1 µM, first compound 0.0316 µM): 40.9%
- viability, T/C (second compound 1 µM, first compound 0.1 µM): 44.4%
- viability, T/C (second compound 1 µM, first compound 0.316 µM): 40.4%
- viability, T/C (second compound 1 µM, first compound 1 µM): 39.6%
- viability, T/C (second compound 1 µM, first compound 3.16 µM): 41.8%
- viability, T/C (second compound 1 µM, first compound 10 µM): 41.8%
- viability, T/C (second compound 3.16 µM, first compound 0.0316 µM): 40.5%
- viability, T/C (second compound 3.16 µM, first compound 0.1 µM): 41.9%
- viability, T/C (second compound 3.16 µM, first compound 0.316 µM): 41.7%
- viability, T/C (second compound 3.16 µM, first compound 1 µM): 47.2%
- viability, T/C (second compound 3.16 µM, first compound 3.16 µM): 42.6%
- viability, T/C (second compound 3.16 µM, first compound 10 µM): 41.3%
- viability, T/C (second compound 10 µM, first compound 0.0316 µM): 48.5%
- viability, T/C (second compound 10 µM, first compound 0.1 µM): 39.8%
- viability, T/C (second compound 10 µM, first compound 0.316 µM): 37.8%
- viability, T/C (second compound 10 µM, first compound 1 µM): 38.3%
- viability, T/C (second compound 10 µM, first compound 3.16 µM): 44.6%
- viability, T/C (second compound 10 µM, first compound 10 µM): 37.5%

SMILES: CCc1c2c(nc3ccc(O)cc13)-c1cc3c(c(=O)n1C2)COC(=O)[C@]3(O)CC
- viability, T/C (compound 0.00316 µM): 79.8% and 73.5% and 71.1%
- viability, T/C (compound 0.01 µM): 59.2% and 56% and 49.9%
- viability, T/C (compound 0.0316 µM): 55.4% and 52.2% and 41.7%
- viability, T/C (compound 0.1 µM): 45.9% and 44.3% and 37.6%
- viability, T/C (compound 0.316 µM): 24.9% and 35.3% and 28.6%
- viability, T/C (compound 1 µM): 7.27% and 9.92% and 8.91%
- IC50 (curve of compound): 47.1 nM and 38.3 nM and 19.1 nM
